Common to all, as to type: cell-based
Assay [1] relates to Pseudomonas aeruginosa (6 strains). Kind of assay: Antibacterial in vitro activity (MIC), Pseudomonas aeruginosa (6 strains). From the text: (§1) Comparison between the antibacterial in vitro
(§2) activity (MIC, μg/ml) of compounds (1)
(§3) and (31) and a reference drug: Moxalactam

For assay [2], the system named is Streptococcus pyrogenes ATCC 12384. Kind of assay: Antibacterial in vitro activity (MIC), Streptococcus pyrogenes ATCC 12384. Conditions: ATCC12384.
From the text: as §1, §2, §3

Assay [3] deals with Staphylococcus aureus 209 P. Kind of assay: Antibacterial in vitro activity (MIC), Staphylococcus aureus 209 P.
From the text: as §1, §2, §3

In assay [4] the test system is Staphylococcus aureus Smith ATCC 13709. Kind of assay: Antibacterial in vitro activity (MIC), Staphylococcus aureus Smith ATCC 13709. The settings on record: ATCC13709.
From the text: as §1, §2, §3

Assay [5] has as its system Escherichia coli B Cef. R (β-lact.+). Kind of assay: Antibacterial in vitro activity (MIC), Escherichia coli B Cef. R (β-lact.+).
From the text: as §1, §2, §3

Assay [6] deals with Klebsiella aerogenes 1082E (β-lact.+). Kind of assay: Antibacterial in vitro activity (MIC), Klebsiella aerogenes 1082E (β-lact.+).
From the text: as §1, §2, §3

For assay [7], the system named is Shigella flexneri ATCC 11836. Kind of assay: Antibacterial in vitro activity (MIC), Shigella flexneri ATCC 11836. The settings on record: ATCC11836.
From the text: as §1, §2, §3

Assay [8] concerns Enterobacter cloacae P 99 (β-lact.+). Kind of assay: Antibacterial in vitro activity (MIC), Enterobacter cloacae P 99 (β-lact.+).
From the text: as §1, §2, §3

The test system of assay [9] is Citrobacter freundii ATCC 8090. Kind of assay: Antibacterial in vitro activity (MIC), Citrobacter freundii ATCC 8090. Conditions: ATCC8090.
From the text: as §1, §2, §3

In assay [10] the test system is Acinobacter. Kind of assay: Antibacterial in vitro activity (MIC), Acinobacter.
From the text: as §1, §2, §3

Assay [11] deals with Escherichia coli 026/B6 Cef R. Kind of assay: Antibacterial in vitro activity (MIC), Escherichia coli 026/B6 Cef R. Conditions: 026/B6CEFR.
From the text: as §1, §2, §3

The mark [12] stands for this setting: Escherichia coli B Cef. R (β-lact.+), read-out: MIC.
The mark [13] stands for this setting: Klebsiella aerogenes 1082E (β-lact.+), read-out: MIC.
Where [14] appears, read: Enterobacter cloacae P 99 (β-lact.+), read-out: MIC.

Values after ≈ are worked out from the molar mass of the structure shown. Like-named read-outs stand apart in the source and are kept apart here.

In general, MIC refers to the smallest concentration in the dilution series that meets the test's criterion for growth inhibition. Turning to `C[C@@H](O)[C@H]1C(=O)N2C(C(=O)[O-])=C(SCC[n+]3ccccc3)S[C@H]12` [Compound 1, (5R,6S)-6-[(1R)-hydroxyethyl]-2-(2-pyridinioethylthio) penem-3-carboxylate], the MIC was 9.92 µg/mL (≈ 28.1 µM) in [1]; ≤ 0.005 µg/mL in assay [2]; 0.011 µg/mL (≈ 0.0312 µM) in [3]; 0.222 µg/mL (≈ 0.63 µM) in [4]; 0.78 µg/mL (≈ 2.21 µM) in assay [5] (setting [12]); 0.78 µg/mL (≈ 2.21 µM) in assay [6] (setting [13]). Also, the MIC amounted to 0.39 µg/mL (≈ 1.11 µM) in assay [7]; 0.78 µg/mL (≈ 2.21 µM) in assay [8] (setting [14]); 0.78 µg/mL (≈ 2.21 µM) in assay [9] (Citrobacter freundii ATCC 8090, read-out: MIC); 0.78 µg/mL (≈ 2.21 µM) in [10]; 0.39 µg/mL (≈ 1.11 µM) in assay [11].

Take `C[C@@H](O)[C@H]1C(=O)N2C(C(=O)[O-])=C(Oc3ccc(C[n+]4ccccc4)cc3)S[C@H]12` [Compound 31]: the MIC was found to be 0.011 µg/mL (≈ 0.0276 µM) in assay [2]; 0.022 µg/mL (≈ 0.0552 µM) in assay [3]; 0.045 µg/mL (≈ 0.113 µM) in assay [4]; 1.56 µg/mL (≈ 3.92 µM) in assay [5] (Escherichia coli); 1.56 µg/mL (≈ 3.92 µM) in assay [6] (Klebsiella aerogenes); 1.56 µg/mL (≈ 3.92 µM) in assay [7]. Further, the values for the MIC in assay [8] (Enterobacter cloacae), in assay [9] (Citrobacter freundii) and in assay [11] were 1.56 µg/mL (≈ 3.92 µM), 1.56 µg/mL (≈ 3.92 µM) and 0.78 µg/mL (≈ 1.96 µM), respectively.

With `CO[C@@]1(NC(=O)C(C(=O)O)c2ccc(O)cc2)C(=O)N2C(C(=O)O)=C(CSc3nnnn3C)CO[C@@H]21` (stereo partly shown) [Moxalactam, reference compound], the MIC in assay [2] turned out to be 2.5 µg/mL (≈ 4.8 µM); in assay [3], 0.31 µg/mL (≈ 0.596 µM); in assay [4] it was 0.31 µg/mL (≈ 0.596 µM); in [5] (setting [12]) it was 2.5 µg/mL (≈ 4.8 µM); in assay [6] (setting [13]), 0.78 µg/mL (≈ 1.5 µM); in [7], 0.15 µg/mL (≈ 0.288 µM). The results for the MIC in [8] (setting [14]) and in assay [11] were 3.12 µg/mL (≈ 5.99 µM) and 2.5 µg/mL (≈ 4.8 µM), respectively.

(Values after patent publication US4837215A, “Penem derivatives” (Farmitalia Carlo Erba, priority 1985, dated 1989).)
